{"source": "patent US20030235609A1", "about": "“Use of cholinesterase antagonists to treat insulin resistance” (priority 2002, published 2003)", "origin": "cited, not measured here", "system": "muscarinic receptor", "conditions": "cats"}
{"smiles": "COc1ccccc1CNCCCCCCNCCCCCCCCNCCCCCCNCc1ccccc1OC", "note": "[methoctramine]", "values": [{"measurement": "Dose required to produce a full insulin resistance", "setting": "administered into the portal vein", "result": "10^−6 μmol/kg"}]}
{"smiles": "CN1CCN(CC(=O)N2c3ccccc3C(=O)Nc3cccnc32)CC1", "note": "[pirenzepine]", "values": [{"measurement": "Dose achieving a similar degree of insulin resistance", "result": "10^7 mmol/kg"}]}
